Reference: US8900444B2, “Switchable hydrophilicity solvents and methods of use thereof” (Queen's University at Kingston, priority 2009, dated 2014)
Entries after “also recorded” stand apart in the source; their conditions may differ.

Columns and labels:
Assay type in all cases: physicochemical
[1] = Qualitative switchability assessment of BA (Example 1B)
Excerpt: The BA amidine's ability to act as a switchable hydrophilicity solvent for the separation of a selected substance is dependent on its ability to switch from the hydrophobic form to a hydrophilic form. This is achieved by adding water to provide an aqueous layer and decreasing the pH of the aqueous layer, namely by dissolving CO2 in the aqueous layer. When carbon dioxide dissolves in water, it forms carbonic acid with pKa1 of 6.4. The resultant dissociation is sufficient to protonate a hydrophobic amidine, causing it to become charged forming a hydrophilic amidinium bicarbonate (BAB). In this preliminary switching study, the amidine's ability to act as a base and its ability to switch hydrophilicity were studied.
Switching behavior was studied for BA over various periods of time. A glass vial (4 mL) was prepared, containing distilled water (1.0 mL) and BA amidine (0.5 mL).
CO2 was bubbled through the vial for roughly 30 minutes, until the top layer had disappeared showing that a hydrophilic solution of BAB in water had been formed.
A magnetic stirrer was placed in the vial. The vial was suspended in an 80° C. oil bath and stirred. The vial was intermittently removed from the bath and monitored for the presence of a second layer after 20, 50 and 75 minutes. The formation of a second layer (hydrophobic BA) was noted after 20 minutes in the oil bath.

[2] = Quantitative switching study of BA by 1H NMR (Example 1D)
Protocol: A methanol-d4 solution was prepared containing a sodium acetate internal standard (48.8 mM).
Two 4 mL glass vials containing 1.0 mL D2O and 0.5 mL BA were prepared and shaken. A 50 μL sample was withdrawn from each layer of one vial and combined with 0.50 mL of the sodium acetate standard solution in each of two NMR tubes: the top layer (BA) in a first tube; the bottom layer (aqueous) in a second tube.
Carbon dioxide was bubbled through the unsampled vial until the BA had completely converted to BAB, as evidenced by the disappearance of the top layer. The pH of the solution was measured using pH paper to be approximately 8-9. A 50 μL sample was withdrawn from the BAB/D2O solution and added to 0.50 mL of the sodium acetate standard solution in a third NMR tube.
The 4.0 mL vial from which the last NMR sample was withdrawn was then heated at 80° C. for 1 h and stirred by a magnetic stirrer. Bubbles of CO2 were observed escaping from the solution and a top layer, hydrophobic amidine, appeared. After cooling the vial to room temperature, a 50 μL sample was withdrawn from each layer and combined with 0.50 mL of the sodium acetate standard in two NMR tubes: the top layer (BA) in a fourth tube; the bottom layer (aqueous) in a fifth tube.
The NMR spectra of all five samples are shown in FIG. 10 with the first to fifth tubes shown from top to bottom. […] In addition, using the ‘c’ and ‘d’ protons provided stronger signals, to improve accuracy. Based on the strength of the ‘c’ and ‘d’ signals, 11% of the BA remained in the aqueous phase as BAB after the experiment
Using dioxane as the internal standard gave the same results (11% BAB retention in the aqueous phase) as sodium acetate.
The same experiment was repeated except that the temperature of the heating of the 4.0 mL vial was increased from 80° C. to 90° C. A similar retention of BAB in the aqueous phase (12%) was observed.

[3] = Separation of switchable solvent from soybean oil with CO2/carbonated water (Examples 2A, 2C)
Protocol: A 4 mL vial was prepared containing 1.0 mL D2O, 0.5 mL BA and 0.5 mL soybean oil. The vial was shaken thoroughly and allowed to settle, showing a 1.0 mL upper layer (soybean oil and BA) and a 1.0 mL lower layer (D2O). ^1H NMR samples (50 μL) were withdrawn from each layer and mixed with methanol-d4 (0.5 mL) containing a dioxane internal standard (51.5 mM). Another sample was withdrawn from the upper layer for ^1H NMR analysis in CDCl3, because soybean oil is not miscible with methanol. The same volume was discarded from the bottom layer to maintain the initial ratio.
CO2 was bubbled through the system for 1.5 h, at which time the top layer appeared to have halved in volume. Using the same system, ^1H NMR analysis was again conducted on both layers, the bottom layer in methanol-d4 and the top layer in CDCl3.
A 1.0 mL portion of the bottom layer was withdrawn and transferred to a new 4.0 mL vial. A magnetic stirrer was added and the vial was stirred at 80° C. for 1 h. Samples were withdrawn from both layers for ^1H NMR analysis in methanol-d4 with reference to the dioxane internal standard.
The switching behavior of BA in the presence of soybean oil was studied qualitatively and by ^1H NMR spectroscopy as shown in FIG. 11. The top spectrum is that of soy oil. The middle spectrum is that of the upper (organic) phase after the mixing of the BA, soy oil and D2O. This upper phase comprises soy oil and BA. The bottom spectrum is that of the upper (organic) phase after the addition of the CO2 trigger and comprises predominantly soy oil and any residual solvent.
The most informative ^1H NMR spectra in this experiment were those showing the separation of the soy oil and BA. Based on the integration of the peak corresponding to BA at 3.17 ppm in these spectra, 96% of the amidine was removed from the upper soybean oil layer after switching to its hydrophilic BAB form. Other spectra (not shown), collected in methanol-d4 with a dioxane internal standard, confirmed the switching behavior presented in Example 1 above, showing 11% retention of BA in the aqueous phase after heating.
It was possible to remove a high percentage of N1,N1,N4,N4-tetraethylbutane-1,4-diamine from the soybean oil be mixing with carbonated water. The percentage removal was 98.65%. In contrast, 96% of BA was removed from the soybean oil.

SMILES: CCCCN=C(CCCC)N(CCCC)CCCC [BA, N,N,N′-tributylpentanamidine]
- time of CO2 bubbling until top layer disappeared ([1]; 1.0 mL water + 0.5 mL BA): roughly 30 minutes
- heating time to formation of second (hydrophobic) layer ([1]; 80 °C oil bath, stirred): 20 min
- BA remaining in the aqueous phase as BAB after heating ([2]; 80 °C, 1 h, sodium acetate internal standard): 11%
- BA recovered when amidinium bicarbonate solution is heated ([2]; from 1H NMR peak integrations): 89%
- solvent removed from soybean oil after switching to hydrophilic form ([3]; CO2 / carbonated water): 96%
- miscibility with soybean oil ([3]; neutral hydrophobic form): miscible with soy oil; also recorded: miscible with soybean oil
- retention of BA in the aqueous phase after heating ([3]; soybean oil experiment, 80 °C, 1 h, dioxane internal standard): 11%
